From US8916376B2, “Metal-binding peptides” (priority 2007, dated 2014)

Key:
E. coli BLR(DE3) cells [1] = assay: Multi-step selection of E. coli clone library under toxic agents; apparent MIC; assay type: cell-based; details: for concentration above which no bacterial growth was observed: 24 hours selection cycle, FIG. 2
Text: The pCRRL1 library was transformed into E. coli BLR(DE3) cells, which carry a T7 RNA polymerase gene under control of IPTG-regulated lacUV5 promoter. The number of individual clones was estimated to be ˜10^5. The clone library was allowed to grow for 4 hrs in order to obtain several replicates of it, and then split into parts intended for parallel evolution experiments using different toxic agents. Expression of the randomized ORF was induced by IPTG, and the multi-step selection experiment was started by adding appropriate amounts of NiCl2, AgNO3, or K2TeO3 to the cell cultures, as shown in FIG. 2 with the selection of the E. coli clones resistant to NiCl2 (a), AgNO3 (b), and K2TeO3 (c). Large filled circles represent bacterial cultures successfully growing at indicated concentrations of each toxic agent. […] Black arrows point to the most resistant bacterial cultures, from which individual clones have been isolated for further studies of their toxicity tolerance. Grey arrow marks the culture, which was used as a non-adapted control in tests of the bacterial resistance towards nickel, silver, and tellurite. […] A concentration gradient of the toxic agents was chosen to cover a range within which an MIC was expected to be found. Thus, at every step the selective pressure was adjusted depending on the achieved level of the toxicity tolerance to keep the evolving bacterial populations under subinhibitory conditions. Substantial increase in bacterial resistance to Ni^2+, Ag^+, and TeO3^2− was observed during four, five, and seven consecutive selection cycles, respectively. After that, no further change in toxicity tolerance was detected. During the selection procedure, the apparent MIC values increased from 4 to 10 mM NiCl2, from 0.03 to 0.90 mM AgNO3, and from 0.7 to 20 μM K2TeO3. Eight clones were isolated from each of the three evolved resistant populations by plating. These were tested for the dependence of growth on mini-gene expression by measuring OD600 after 24 hrs of cultivation in the presence of corresponding toxic agent, with and without IPTG. […] All eight Ni^2+-resistant clones harbored the same plasmid (designated as pCRRL1-N94-01) with a mini-gene variant coding for the peptide […] (SEQ ID NO 1), a structural model of which is shown in FIG. 2a. In addition, a 9-bp deletion was detected in the spacer region between the ORF and the transcription terminator. However, since no important element of the mini-gene operon was located there, the deletion was unlikely to affect the peptide expression. […] All TeO3^2−-resistant clones carried a version of plasmid pCRRL1-T507-01 that has a 225-bp deletion of the whole mini-gene transcriptional unit together with adjacent downstream sequence. This deletion obviously abolishes T7 RNA polymerase activity on the plasmid, making it irresponsive to IPTG induction.

E. coli BLR(DE3) cells [2] = assay: Dependence of growth under toxic agent on mini-gene expression (OD600, with and without IPTG); assay type: cell-based; details: for effect of IPTG-induced mini-gene expression on growth (OD600): resistant clones carrying the mini-gene, 24 hrs cultivation with the corresponding toxic agent, with and without IPTG
Text: The pCRRL1 library was transformed into E. coli BLR(DE3) cells, which carry a T7 RNA polymerase gene under control of IPTG-regulated lacUV5 promoter. The number of individual clones was estimated to be ˜10^5. The clone library was allowed to grow for 4 hrs in order to obtain several replicates of it, and then split into parts intended for parallel evolution experiments using different toxic agents. Expression of the randomized ORF was induced by IPTG, and the multi-step selection experiment was started by adding appropriate amounts of NiCl2, AgNO3, or K2TeO3 to the cell cultures, as shown in FIG. 2 with the selection of the E. coli clones resistant to NiCl2 (a), AgNO3 (b), and K2TeO3 (c). Large filled circles represent bacterial cultures successfully growing at indicated concentrations of each toxic agent. […] Black arrows point to the most resistant bacterial cultures, from which individual clones have been isolated for further studies of their toxicity tolerance. Grey arrow marks the culture, which was used as a non-adapted control in tests of the bacterial resistance towards nickel, silver, and tellurite. […] A concentration gradient of the toxic agents was chosen to cover a range within which an MIC was expected to be found. […] After that, no further change in toxicity tolerance was detected. […] In addition, a 9-bp deletion was detected in the spacer region between the ORF and the transcription terminator. […]
The existence of a positive correlation between the level of mini-gene expression and the extent of toxicity tolerance would strongly argue in favor of a role for the mini-gene in the mechanism of stress resistance of the evolved clones. […] Comparison of the bacterial growth parameters measured in the presence and absence of IPTG made it possible to distinguish the specific effect of mini-gene expression on culture survival and propagation from the basal resistance to the hostile environment acquired through adaptive genomic mutations. […]

[3] = E. coli BLR(DE3) pCRRL1 library, start of the selection procedure
[4] = evolved resistant population, end of the selection procedure

Compound | concentration above which no bacterial growth was observed (E. coli BLR(DE3) cells [1]) | apparent MIC (E. coli BLR(DE3) cells [1]; [3]) [µM] | apparent MIC (E. coli BLR(DE3) cells [1]; [4]) [µM] | concentration at which culture was able to grow (E. coli BLR(DE3) cells [2]; non-adapted control culture, insensitive to IPTG) | effect of IPTG-induced mini-gene expression on growth (OD600) (E. coli BLR(DE3) cells [2])
O=[Te]([O-])[O-].[K+].[K+] [K2TeO3] | above 18 mM | 0.7 | 20 |  | 
O=[N+]([O-])[O-].[Ag+] [AgNO3] | above 0.9 mM | 30 | 900 |  | 
[Cl][Ni][Cl] [NiCl2] |  | 4000 | 10000 | below 4 mM | 
MSHAYFVCNRCDSSNHSAHE [SEQ ID NO 1, 20-mer peptide encoded by the mini-gene of plasmid pCRRL1-N94-01 in Ni2+-resistant E. coli clones] |  |  |  |  | Significant IPTG-induced growth improvement
MSHATATPASRRRLPLRS [SEQ ID NO 2, 18-mer peptide encoded by the mini-gene of plasmid pCRRL1-A226-01 in Ag+-resistant E. coli clones] |  |  |  |  | not affected by IPTG
